Results taken from patent US20220082578A1, “METHOD OF Q[…]'S MAIN METABOLITES, PSILOCIN AND 4-HYDROXYINDOLE-3-ACETIC ACID, IN HUMAN PLASMA” (Universitätsspital Basel, priority 2020, published 2022).
Where two headings read alike, the source gives them in different places.

Experiments:
[1] = Stability of psilocin and 4-HIAA in plasma under different storage conditions; format: physicochemical; details: human plasma, frozen at −20° C., thawed at room temperature
Procedure: The stability of psilocin and 4-HIAA in plasma were investigated under different storage conditions. Seven replicates of LLOQ, QCLOW, QCMID, and QCHIGH samples were stored for 8 hours at room temperature (bench-top stability) and for 1 month at −20° C. (one-month stability). Moreover, the stability was assessed after three consecutive freeze and thaw cycles (freeze/thaw stability), thereby freezing the QC samples at −20° C. for at least 24 hours and thawing them afterwards at room temperature. The concentration of those stability test samples was calculated based on a freshly prepared calibration line. Samples were designated to be stable if the accuracy was between 85-115% (LLOQ: 80-120%) and the precision ≤15% (LLOQ: ≤20%).

[2] = Pharmacokinetics of psilocin and 4-HIAA in plasma of healthy volunteers after a single oral dose of 25 mg psilocybin (LC-MS/MS); format: in vivo, human; details: for Cmax / Tmax / AUC(0-t) / half-life: human; for Cmax / Tmax: po, 25 mg; for AUCLAST relative to AUCLAST of psilocin: 0-420 min
Procedure: To examine the application of the developed method, psilocin and 4-HIAA concentrations were quantified in plasma samples of three healthy volunteers receiving a single oral dose of 25 mg psilocybin. This is a moderate to high dose currently used in clinical phase 2-3 studies. The study was approved by the Ethical Committee of Northwestern and Central Switzerland (EKNZ, BASEC ID: 2019-00223), registered at ClinicalTrials.gov (ID: NCT03912974), and conducted in accordance with the Declaration of Helsinki and International Conference on Harmonization Guidelines in Good Clinical Practice. All volunteers provided written informed consent prior to study participation.
To establish concentration time profiles, blood samples were collected in lithium heparin coated tubes at the following time points: 2 hours before and 0, 15, 30, 45, 60, 90, 120, 150, 180, 240, 300, 360, and 420 minutes after treatment. Blood samples were centrifuged for 10 minutes at 3000 rpm to obtain plasma, which was transferred into cryotubes. All samples were stored −80° C. until analysis.
Study, calibration, and QC samples were processed as described before. In addition, the total amount of glucuronide conjugated psilocin and 4-HIAA was determined similar to the protocol of Kamata et al. (2006). In brief, 5 μl of Escherichia coli deglucuronidase (3000 units/ml in water) was mixed with 50 μl plasma sample. An aliquot of 100 μl acetic acid buffer (0.1 M) was added to the mixture. The samples were incubated for 3 hours at 37° C. in a thermomixer (Eppendorf, Hamburg, Germany). Enzymatic reaction was terminated, and samples extracted by the addition of 150 μl methanol. The samples were vortex mixed and centrifuged as outlined above.
For each analytical run, a calibration line was analysed at the beginning and at the end of the measurements. In between, the study samples of the three volunteers were measured as well as triplicates of LLOQ, QCLOW, QCMID, and QCHIGH samples. Samples with a concentration below the LLOQ were marked as blq (below limit of quantification) and samples with concentrations above the ULOQ were diluted with blank plasma into the calibration range.
The concentration-time profile was plotted and the maximal plasma concentration (Cmax) and time to reach it (Tmax) were obtained graphically from the plots. Pharmacokinetic parameters were calculated using non-compartmental methods in Phoenix WinNonlin 8.3 (Certara, N.J., USA). The area under the plasma concentration time profile was calculated by using the linear trapezoidal rule from 0-420 min (AUCLAST). The elimination half-life (t1/2) was calculated by the equation
where the elimination rate constant (λ) was the slope of log(C(t)) versus t determined in the terminal elimination phase.

[3] = cited from earlier work
[4] = plasma, average of three healthy volunteers, oral 25 mg psilocybin, read-out: maximal plasma level (Cmax)
[5] = plasma, plasma, three healthy volunteers, oral dose of 25 mg psilocybin, read-out: Cmax ± SD
[6] = plasma, three healthy volunteers, oral dose of 25 mg psilocybin
[7] = area under the plasma concentration time curve until 7 h post treatment, oral 25 mg psilocybin
[8] = after oral administration of psilocybin

SMILES	accuracy of QC samples after three freeze and thaw cycles [1]	Cmax [2, 4] [ng/mL]	Cmax [2, 5] [ng/mL]	Tmax [2, 6] [h]	AUC(0-t) [2, 7] [ng·h/mL]	half-life [2, 6] [h]	AUCLAST relative to AUCLAST of psilocin ([2]; oral 25 mg psilocybin)	Tmax ± SD [2, 6]	AUClast [2, 7] [ng·min/mL]	maximal plasma level (Cmax) ([2]; average of three healthy volunteers, oral 25 mg psilocybin) [ng/mL]	t1/2 [2, 6] [h]	Tmax ± SD ([2]; plasma, three healthy volunteers, oral dose of 25 mg psilocybin, listed as Psilocin-glucuronide) [h]	plasma concentration (not detectable at limit of detection) ([2]; plasma of volunteers who received 25 mg psilocybin) [ng/mL]	elimination half-life [3, 8] [h]	peak concentrations in plasma [3, 8] [ng/mL]	time to peak plasma concentration [3, 8] [h]	fraction excreted from body as psilocin-O-glucuronide ([3]; in vivo) [%]	glucuronide conjugation in plasma ([2]; samples reanalysed after deglucuronidation with Escherichia coli glucuronidase)
O=C(O)Cc1c[nH]c2cccc(O)c12 [4-HIAA, 4-hydroxyindole-3-acetic acid]	100-109%	137	137 ± 22	2 to 2.33	372	2.32	about 5 fold	2 ± 1 h										
CN(C)CCc1c[nH]c2cccc(O[C@@H]3O[C@H](C(=O)O)[C@@H](O)[C@H](O)[C@H]3O)c12 [psilocin-glucuronide, psilocin-O-glucuronide]							5-6 fold	roughly 220 min	20631	78.3	3.58 ± 1.2	3.67 ± 1.53						
OCCc1c[nH]c2cccc(O)c12 [4-HTP, 4-hydroxytryptophol]													< 2.5					
CN(C)CCc1c[nH]c2cccc(O)c12 [psilocin]	105-108%	19.2	19.2 ± 4	2 to 2.33	61.2	2.12		2.33 ± 0.767 h						2 to 3	10 to 40	1.5 to 2	80	underwent extensive 0-glucuronidation
